Measured values taken from patent US5885592A, “Methods and pharmaceutical compositions for oral delivery of molecular iodine” (priority 1997, dated 1999).
Blank lines part the entries; values can stand above or below the compound they belong to.

Assays:
mammary tissue [1] = test: Histologic grading of mammary tissue in iodine deficient rats, 4 weeks (Example 12); assay type: in vivo, Female Sprague-Dawley rats; settings: for Fibroadenomata / Lobular hyperplasia / Periductal fibrosis / Secretion: 4 weeks
Description: (§1) Rats were dosed with molecular iodine once daily. Food was removed from the rats each morning and ten hours later, each rat was dosed with one of three concentrations 0.0010, 0.010 or 0.10 mg/kg of molecular iodine. A dose of iodide (100 ug/kg) was given to a control group of rats. The negative control consisted of rats which were dosed with tap water. At the end of 4 weeks rats were sacrificed and microscopic sections of the mammary gland tissues were stained with hematoxylin and eosin prior to being read by a pathologist.
Six groups of animals were examined: groups 1-3 received daily doses of one of three concentrations of molecular iodine; (4) received the normal diet without perchlorate treatment; (5) received the iodine deficient diet with a water gavage; and (6) received an iodine deficient diet and were dosed with iodide (100 ug/kg). […] The results of this histological grading are shown below in tabular form.

mammary glands = settings: compared with iodide; cited from earlier work
thyroid [2] = settings: male rats, cited from earlier work
thyroid hormones = settings: repeated daily doses; no increase below; cited from earlier work
[3] = function of pH; cited from earlier work
dysplastic mastodynia = settings: women with dysplastic mastodynia; cited from earlier work
thyroid [4] = test: Thyroid weight of rats after subchronic oral administration (Sherer et al., cited); assay type: in vivo, male rats; settings: compared with molecular iodine
Description: The only scientific studies on the relative oral toxicity of molecular iodine and iodide was performed during the early 1990s (Karla Thrall, Ph.D. Thesis, "Formation of Organic By-Products Following Consumption of Iodine Disinfected Drinking Water", Summary and Conclusion Section, Oregon State University, Department of Chemistry, 1992). The weight of a mammals thyroid is one key diagnostic measure used to evaluate the toxicity of an iodine composition. […] Another way to state this is that it required ten time more molecular iodine than iodide to effect animal thyroid function with an orally administered iodine composition.

mammary tissue [5] = test: Histologic grading of mammary tissue in iodine deficient rats, 2 week study (Example 8); assay type: in vivo, Female Sprague-Dawley rats
Description: Perchlorate-treated (400 mg/dL NaClO4) municipal tap water was provided ad libitum for the first five days of captivity. […] Each day for the five days preceding the initiation of testing, animals received estrogen (25 ug of 17-βestradiol) suspended in 100 ul of sesame oil injected IM. During the 2 week experiment estrogen (2.5 ug 17-βestradiol) suspended in 100 ul of sesame oil was injected daily. Vaginal smears were taken every other day to insure that rats achieved constant estrus throughout the experiment.
as §1, with “with 80 ug/kg” for “with one of three concentrations 0.0010, 0.010 or 0.10 mg/kg”, “iodine. An equivalent” for “iodine. A”, “iodide (80” for “iodide (100”, “water. Rats were weighed daily.” for “water.”, “of the 2 week study” for “of 4 weeks”
Each group contained 10 animals.
The mammary tissue was graded for lobular hyperplasia, secretions, periductal fibrosis, and fibroadenomatous changes. The scoring system for lobular hyperplasia, secretions, periductal fibrosis graded as positive only those animals showing moderate to severe conditions. […] The results of this histological grading are shown below in tabular form.

human = human oral consumption; cited from earlier work
[6] = Body weight of iodine deficient rats, 2 week study (Example 8); settings: in g (unit assumed)

Compound: II [molecular iodine]
formation of fibroadenomata and periductal fibrosis (in words) (mammary tissue [1]; 1 ug/kg daily): did not substantially alleviate the formation of fibroadenomata and periductal fibrosis | Fibroadenomata (mammary tissue [1]; 1 ug/kg daily): 4/10 | Lobular hyperplasia (mammary tissue [1]; 1 ug/kg daily): 4.10 | Periductal fibrosis (mammary tissue [1]; 1 ug/kg daily): 6/10 | Secretion (mammary tissue [1]; 1 ug/kg daily): 6/10 | Fibroadenomata (mammary tissue [1]; 10 ug/kg daily): 1/10 | Lobular hyperplasia (mammary tissue [1]; 10 ug/kg daily): 2/10 | Periductal fibrosis (mammary tissue [1]; 10 ug/kg daily): 4/10 | Secretion (mammary tissue [1]; 10 ug/kg daily): 4/10 | Fibroadenomata (mammary tissue [1]; 100 ug/kg daily): 1/10 | Lobular hyperplasia (mammary tissue [1]; 100 ug/kg daily): 2/10 | Periductal fibrosis (mammary tissue [1]; 100 ug/kg daily): 2/10 | Secretion (mammary tissue [1]; 100 ug/kg daily): 3/10 | formation of fibroadenomata and periductal fibrosis (in words) (mammary tissue [1]; 10 and 100 ug/kg daily): substantially reduced the formation of fibroadenomata and periductal fibrosis | diminishing ductal hyperplasia and perilobular fibrosis in the mammary glands (mammary glands): distinctly more effective in diminishing ductal hyperplasia and perilobular fibrosis in the mammary glands than iodide | did not effect thyroid weight even at concentrations of (thyroid [2]; no effect up to this dose, oral): 100 mg/kg | dose at which an increase in steady state levels of thyroid hormones was measured (thyroid hormones): 10 mg per kilogram of body weight | stability in water [3]: unstable in water

Compound: II [iodine]
improvement rate (dysplastic mastodynia): 71%

concentration affecting thyroid weight relative to molecular iodine (fold less) (thyroid [4]): 10 fold
Compound: I [iodide]
Fibroadenomata (mammary tissue [5]; 80 ug/kg daily gavage, 2 weeks): 4/10 | secretion and fibroadenomata (result in words) (mammary tissue [5]; 80 ug/kg daily gavage, 2 weeks): displayed increased secretion and fibroadenomata | Lobular hyperplasia (mammary tissue [5]; po, 0.08 mg/kg, 336 h): 4/10 | Periductal fibrosis (mammary tissue [5]; po, 0.08 mg/kg, 336 h): 6/10 | Secretion (mammary tissue [5]; po, 0.08 mg/kg, 336 h): 4/10 | Fibroadenomata (mammary tissue [1]; 100 ug/kg daily): 3/10 | Lobular hyperplasia (mammary tissue [1]; 100 ug/kg daily): 4/10 | Periductal fibrosis (mammary tissue [1]; 100 ug/kg daily): 5/10 | Secretion (mammary tissue [1]; 100 ug/kg daily): 5/10 | formation of fibroadenomata (in words) (mammary tissue [1]; iodide 100 ug/kg daily): did not substantially alleviate the formation of fibroadenomata | range of human consumption above which there is a health risk (human): 0.150 to 1.0 mg/day | increased thyroid weight, dose (thyroid [2]; subchronic oral administration): 10 mg/kg | average body weight at end ([6]; 80 ug/kg daily, end of 2 weeks): 235±7.1 | average body weight at start ([6]; 80 ug/kg, start): 214±6.5
